We go through three molecules from ChEMBL document CHEMBL5653631, “A Potent and Selective ULK1 Inhibitor Suppresses Autophagy and Sensitizes Cancer Cells to Nutrient Stress” (iScience, 2018).

Assay [1] addresses T1, Mitogen-activated protein kinase kinase kinase 7 (Homo sapiens) (UniProt O43318).
T1 sequence (whole entry): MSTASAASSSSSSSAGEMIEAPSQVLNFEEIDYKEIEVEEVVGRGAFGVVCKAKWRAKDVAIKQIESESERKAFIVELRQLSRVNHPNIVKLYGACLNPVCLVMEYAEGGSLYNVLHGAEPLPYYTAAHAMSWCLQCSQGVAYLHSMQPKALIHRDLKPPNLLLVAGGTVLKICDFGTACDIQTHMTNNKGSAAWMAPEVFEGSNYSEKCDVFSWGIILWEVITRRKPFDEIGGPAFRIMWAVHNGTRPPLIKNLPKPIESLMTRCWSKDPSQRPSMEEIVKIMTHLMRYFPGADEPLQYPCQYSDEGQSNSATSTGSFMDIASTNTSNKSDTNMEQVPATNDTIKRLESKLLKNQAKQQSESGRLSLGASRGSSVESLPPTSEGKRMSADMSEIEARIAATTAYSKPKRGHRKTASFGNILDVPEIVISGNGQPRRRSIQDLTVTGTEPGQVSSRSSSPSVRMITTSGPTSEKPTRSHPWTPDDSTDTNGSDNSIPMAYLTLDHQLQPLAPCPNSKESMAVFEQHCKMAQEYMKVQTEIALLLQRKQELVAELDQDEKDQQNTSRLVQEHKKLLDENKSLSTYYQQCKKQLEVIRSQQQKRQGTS
Put plainly: Inhibition of human recombinant TAK1 at 15 nM in presence of ATP by radiometric assay relative to control.

Assay [2] addresses T2, Ephrin type-B receptor 2 (Homo sapiens) (UniProt P29323).
T2 sequence (whole entry): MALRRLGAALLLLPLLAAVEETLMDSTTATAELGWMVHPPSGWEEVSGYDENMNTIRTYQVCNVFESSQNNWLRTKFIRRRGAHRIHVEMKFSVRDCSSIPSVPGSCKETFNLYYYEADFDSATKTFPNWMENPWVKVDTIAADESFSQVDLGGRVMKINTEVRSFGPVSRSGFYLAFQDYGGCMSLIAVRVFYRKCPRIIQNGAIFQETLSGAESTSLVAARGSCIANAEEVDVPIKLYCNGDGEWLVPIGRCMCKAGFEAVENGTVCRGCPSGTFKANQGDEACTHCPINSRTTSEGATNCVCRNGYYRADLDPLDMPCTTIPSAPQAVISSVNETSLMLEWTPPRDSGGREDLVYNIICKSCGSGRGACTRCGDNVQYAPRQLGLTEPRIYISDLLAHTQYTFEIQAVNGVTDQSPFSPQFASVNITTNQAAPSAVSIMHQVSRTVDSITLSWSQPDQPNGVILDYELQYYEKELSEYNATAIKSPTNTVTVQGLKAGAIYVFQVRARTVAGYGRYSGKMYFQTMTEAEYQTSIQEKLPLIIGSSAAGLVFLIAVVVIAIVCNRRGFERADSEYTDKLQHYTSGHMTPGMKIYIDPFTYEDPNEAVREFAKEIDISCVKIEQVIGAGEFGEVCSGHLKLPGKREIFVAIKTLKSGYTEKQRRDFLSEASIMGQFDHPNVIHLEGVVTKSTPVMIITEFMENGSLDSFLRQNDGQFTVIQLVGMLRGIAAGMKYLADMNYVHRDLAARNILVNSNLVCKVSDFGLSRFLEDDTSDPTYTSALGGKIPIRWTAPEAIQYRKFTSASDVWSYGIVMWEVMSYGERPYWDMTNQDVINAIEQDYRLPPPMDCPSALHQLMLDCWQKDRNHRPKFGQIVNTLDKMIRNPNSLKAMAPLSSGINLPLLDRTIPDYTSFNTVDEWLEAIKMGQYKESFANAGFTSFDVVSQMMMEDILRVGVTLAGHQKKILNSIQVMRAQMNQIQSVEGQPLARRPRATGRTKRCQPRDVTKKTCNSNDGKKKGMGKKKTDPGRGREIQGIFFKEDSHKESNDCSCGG
Put plainly: Inhibition of human recombinant EphB2 at 15 nM related to control ULK1.

In assay [3] the target is T2, Ephrin type-B receptor 2 (Homo sapiens). Kind of assay: Inhibition of human recombinant EphB2 at 15 nM in presence of ATP by radiometric assay relative to control.
Assay [4] deals with Homeodomain-interacting protein kinase 3 (Homo sapiens) (UniProt Q9H422). Kind of assay: Inhibition of human recombinant HIPK3 at 40 nM related to control ULK1.
Assay [5] addresses T3, Serine/threonine-protein kinase ULK3 (Homo sapiens) (UniProt Q6PHR2).
T3 sequence (whole entry): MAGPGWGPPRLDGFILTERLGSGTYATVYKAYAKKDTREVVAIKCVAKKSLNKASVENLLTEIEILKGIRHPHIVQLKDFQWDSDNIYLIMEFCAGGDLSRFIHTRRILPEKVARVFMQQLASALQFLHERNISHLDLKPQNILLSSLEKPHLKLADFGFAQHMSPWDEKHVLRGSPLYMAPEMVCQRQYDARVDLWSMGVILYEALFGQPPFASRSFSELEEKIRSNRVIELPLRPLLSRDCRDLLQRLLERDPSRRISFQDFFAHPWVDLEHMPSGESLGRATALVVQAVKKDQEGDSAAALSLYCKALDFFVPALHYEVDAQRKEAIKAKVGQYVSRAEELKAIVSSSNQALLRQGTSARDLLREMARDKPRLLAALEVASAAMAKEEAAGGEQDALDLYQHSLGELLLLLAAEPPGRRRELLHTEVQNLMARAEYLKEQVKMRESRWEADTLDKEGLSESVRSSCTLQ
Put plainly: Inhibition of human recombinant ULK3 at 40 nM in presence of ATP by radiometric assay relative to control.

Assay [6] has as its target NT-3 growth factor receptor (Homo sapiens) (UniProt Q16288). Kind of assay: Inhibition of human recombinant TRKC at 500 nM related to control ULK1.

NT-3 growth factor receptor (Homo sapiens), sequence (Q16288 32-839 limits assumed): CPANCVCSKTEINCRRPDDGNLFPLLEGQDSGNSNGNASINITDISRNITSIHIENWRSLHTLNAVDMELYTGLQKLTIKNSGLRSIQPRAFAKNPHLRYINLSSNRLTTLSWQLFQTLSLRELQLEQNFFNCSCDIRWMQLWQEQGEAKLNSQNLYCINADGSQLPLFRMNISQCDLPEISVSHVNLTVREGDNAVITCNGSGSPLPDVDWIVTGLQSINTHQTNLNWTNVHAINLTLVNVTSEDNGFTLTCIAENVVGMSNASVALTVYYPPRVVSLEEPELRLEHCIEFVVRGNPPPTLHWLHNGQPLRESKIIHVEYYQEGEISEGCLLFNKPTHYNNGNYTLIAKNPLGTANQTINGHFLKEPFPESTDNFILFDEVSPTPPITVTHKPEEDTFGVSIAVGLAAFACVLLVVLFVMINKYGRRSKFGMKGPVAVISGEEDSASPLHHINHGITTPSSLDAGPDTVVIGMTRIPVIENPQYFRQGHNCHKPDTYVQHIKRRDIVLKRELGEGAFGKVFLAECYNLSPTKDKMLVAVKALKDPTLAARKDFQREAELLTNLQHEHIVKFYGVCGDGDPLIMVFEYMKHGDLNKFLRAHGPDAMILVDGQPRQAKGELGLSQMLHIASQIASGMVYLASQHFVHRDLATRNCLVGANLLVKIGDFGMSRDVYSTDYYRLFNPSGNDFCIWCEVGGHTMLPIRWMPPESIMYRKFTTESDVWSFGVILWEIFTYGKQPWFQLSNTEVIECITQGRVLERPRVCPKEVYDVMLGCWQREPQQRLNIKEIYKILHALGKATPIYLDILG
Homeodomain-interacting protein kinase 3 (Homo sapiens), sequence (Q9H422 whole entry, looked up): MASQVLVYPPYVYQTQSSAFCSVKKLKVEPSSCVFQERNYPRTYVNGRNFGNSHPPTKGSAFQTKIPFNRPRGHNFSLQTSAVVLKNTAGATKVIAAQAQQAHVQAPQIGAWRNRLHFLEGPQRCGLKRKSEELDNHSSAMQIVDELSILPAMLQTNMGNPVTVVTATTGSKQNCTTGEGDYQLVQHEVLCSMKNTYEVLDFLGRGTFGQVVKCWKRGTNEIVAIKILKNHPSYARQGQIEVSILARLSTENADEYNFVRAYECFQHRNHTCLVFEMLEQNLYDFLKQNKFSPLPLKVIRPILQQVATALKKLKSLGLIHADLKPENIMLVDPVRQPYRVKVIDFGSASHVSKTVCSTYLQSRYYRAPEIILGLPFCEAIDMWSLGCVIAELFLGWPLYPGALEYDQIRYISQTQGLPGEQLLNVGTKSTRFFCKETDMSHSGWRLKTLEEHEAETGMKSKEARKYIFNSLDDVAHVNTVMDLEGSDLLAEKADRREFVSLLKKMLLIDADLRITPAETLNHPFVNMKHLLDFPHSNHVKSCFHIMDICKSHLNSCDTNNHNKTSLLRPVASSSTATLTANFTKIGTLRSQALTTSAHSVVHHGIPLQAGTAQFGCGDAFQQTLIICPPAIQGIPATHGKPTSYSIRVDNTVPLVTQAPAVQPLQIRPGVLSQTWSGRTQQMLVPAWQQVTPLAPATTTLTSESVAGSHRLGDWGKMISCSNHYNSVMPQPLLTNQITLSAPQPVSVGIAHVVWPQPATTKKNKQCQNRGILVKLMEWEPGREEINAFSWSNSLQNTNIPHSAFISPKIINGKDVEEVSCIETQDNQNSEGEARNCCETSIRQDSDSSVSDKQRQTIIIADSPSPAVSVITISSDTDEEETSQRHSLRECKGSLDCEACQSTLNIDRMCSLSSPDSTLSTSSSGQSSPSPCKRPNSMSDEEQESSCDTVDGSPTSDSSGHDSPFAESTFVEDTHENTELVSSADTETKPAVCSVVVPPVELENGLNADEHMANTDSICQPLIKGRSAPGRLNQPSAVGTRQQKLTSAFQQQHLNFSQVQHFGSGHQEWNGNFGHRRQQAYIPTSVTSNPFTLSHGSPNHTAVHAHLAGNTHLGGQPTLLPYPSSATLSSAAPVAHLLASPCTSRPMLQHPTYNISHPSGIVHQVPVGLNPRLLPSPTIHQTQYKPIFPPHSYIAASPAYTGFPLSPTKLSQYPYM

In general, inhibition refers to how much of the control response was suppressed. `CC(C)[C@H](NC(=O)c1cc(-c2cnn3cc(-c4ccc(OCCN5CCCCC5)cc4)cnc23)cs1)C(F)(F)F`: the inhibition came out at 1% in assay [1] and 7% in assay [3]. For the same molecule, the fold change (FC) in assay [2] is 0.08.

As to `O=C(N[C@@H](C1CC1)C(F)(F)F)c1cc(-c2cnn3cc(-c4ccc(F)cc4)cnc23)cs1`, in assay [4], the fold change (FC) was 0.07. The inhibition in assay [5] worked out at 5%.

On to `CNC(=O)c1ccccc1Oc1nc(Nc2cc(OC)c(OC)c(OC)c2)ncc1Br`, for which the fold change (FC) in assay [6] came to 0.
